Results on twelve compounds are retold here after patent publication US8802711B2, “TRPV1 antagonists” (AbbVie Inc., priority 2011, dated 2014).

Structures are written as SMILES.

human TRPV1 receptor (hTRPV1), sequence (Q8NER1 whole entry): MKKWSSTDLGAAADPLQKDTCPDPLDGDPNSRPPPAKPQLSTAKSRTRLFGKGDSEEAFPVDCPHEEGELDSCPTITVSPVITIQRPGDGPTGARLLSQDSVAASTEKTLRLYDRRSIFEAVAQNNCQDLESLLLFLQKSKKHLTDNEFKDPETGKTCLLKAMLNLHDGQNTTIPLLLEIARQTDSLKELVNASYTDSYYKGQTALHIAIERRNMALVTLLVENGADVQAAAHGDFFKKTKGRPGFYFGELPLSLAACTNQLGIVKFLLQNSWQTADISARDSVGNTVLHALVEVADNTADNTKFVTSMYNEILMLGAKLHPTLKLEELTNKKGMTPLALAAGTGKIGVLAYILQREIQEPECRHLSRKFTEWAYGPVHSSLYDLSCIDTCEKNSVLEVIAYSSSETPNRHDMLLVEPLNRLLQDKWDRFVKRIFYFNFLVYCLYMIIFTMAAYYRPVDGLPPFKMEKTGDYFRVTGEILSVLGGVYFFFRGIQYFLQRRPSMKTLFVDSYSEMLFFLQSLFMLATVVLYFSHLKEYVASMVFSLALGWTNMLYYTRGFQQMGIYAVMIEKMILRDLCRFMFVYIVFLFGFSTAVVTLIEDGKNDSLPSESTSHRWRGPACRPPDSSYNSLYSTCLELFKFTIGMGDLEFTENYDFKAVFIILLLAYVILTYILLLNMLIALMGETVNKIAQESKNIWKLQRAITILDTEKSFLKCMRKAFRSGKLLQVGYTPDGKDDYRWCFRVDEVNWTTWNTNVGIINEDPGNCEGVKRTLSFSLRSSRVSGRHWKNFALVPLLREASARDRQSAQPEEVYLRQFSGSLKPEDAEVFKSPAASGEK

This assay concerns the target human TRPV1 receptor (hTRPV1) (Homo sapiens (Human), UniProt Q8NER1). The assay is described as follows: Acid activation assay (pH 5.0, FLIPR intracellular Ca2+). The class given is cell-based. As to conditions: Table 1; 37.5 μM antagonist, percentage of the maximal pH 5.0-induced response remaining; read-out: hTRPV1 H+ (max % remain). On the procedure:
Dulbecco's modified Eagle's medium (DMEM) with 4.5 mg/mL D-glucose, fetal bovine serum, L-glutamine, and 2-morpholinoethanesulfonic acid (MES) were purchased from Sigma-Aldrich Co. (St. Louis, Mo.). Dulbecco's phosphate-buffered saline (DPBS) with Ca^2+, Mg^2+, and 1 mg/mL D-glucose (pH 7.4), Geneticin®, 0.25% trypsin-1 mM EDTA, and penicillin-streptomycin were purchased from Invitrogen Corp. (Carlsbad, Calif.). The FLIPR® Calcium 4 assay kit was purchased from Molecular Devices (Sunnyvale, Calif.).
The cDNAs for the human TRPV1 receptor (hTRPV1) were isolated by reverse transcriptase-polymerase chain reaction (RT-PCR) from human small intestine poly A+RNA supplied by Clontech (Palo Alto, Calif.) using primers designed surrounding the initiation and termination codons identical to the published sequences (Hayes et al. Pain 2000, 88, 205-215). The resulting cDNA PCR products were subcloned into pCIneo mammalian expression vector (Promega) and fully sequenced using fluorescent dye-terminator reagents (Prism, Perkin-Elmer Applied Biosystems Division) and a Perkin-Elmer Applied Biosystems Model 373 DNA sequencer or Model 310 genetic analyzer. Expression plasmids encoding the hTRPV1 cDNA were transfected individually into 1321N1 human astrocytoma cells using Lipofectamine. Forty-eight hours after transfection, the neomycin-resistant cells were selected with growth medium containing 800 μg/mL Geneticin (Gibco BRL). Surviving individual colonies were isolated and screened for TRPV1 receptor activity. Cells expressing recombinant homomeric TRPV1 receptors were maintained at 37° C. in DMEM containing 4 mM L-glutamine, 300 μg/mL G418 (Cal-biochem) and 10% fetal bovine serum under a humidified 5% CO2 atmosphere.
The functional activity of compounds at the TRPV1 receptor was determined by measurement of intracellular Ca^2+ levels ([Ca^2+]i) using the Fluorescence Imaging Plate Reader (FLIPR)^TETRA®. All compounds were tested over a 12-point one-half-log concentration range. Compound stocks, 10 mM, were prepared in DMSO, and diluted serially across a 384-well plate using a Bravo BenchCel workstation (Agilent Technologies, Santa Clara, Calif.).
On the day of the experiment growth medium was removed, and the no-wash FLIPR® Calcium-4 dye (λEX=470-495 nm, λEM=515-575 nm) was added to each well using the Multidrop® dispenser. Cells were incubated for 90-120 minutes in the dark at 25° C. Test compounds were dissolved in DMSO, and plates were prepared using an Agilent Bravo workstation (Agilent Technologies Inc., Santa Clara, Calif.). Compounds were added to the cells 3 minutes prior to the addition of a pH 5.0 solution. Reagents were delivered at a rate of 40 μL/sec, and the final assay volume was 80 μL. Acidic pH solutions were prepared by titration of DPBS/MES with 1 N HCl. The intensity of the fluorescence was captured and digitally transferred to an interfaced PC.
As to `O=C(Nc1cccc2[nH]ncc12)N[C@@H]1CC[C@H](c2nc(C(F)(F)F)cs2)C1` (relative stereo) [Example 130, 1-(1H-indazol-4-yl)-3-{(1R*,3S*)-3-[4-(trifluoromethyl)-1,3-thiazol-2-yl]cyclopentyl}urea], the remaining activity at 37.5 µM was found to be 5%.
In the case of `O=C(Nc1cccc2[nH]ncc12)N[C@@H]1CC[C@@H](c2nc(C(F)(F)F)cs2)C1` (relative stereo) [Example 129, 1-(1H-indazol-4-yl)-3-{(1R*,3R*)-3-[4-(trifluoromethyl)-1,3-thiazol-2-yl]cyclopentyl}urea] it was 6%; in that of `O=C(Nc1cccc2[nH]ncc12)N[C@@H]1CCC(c2nc(C(F)(F)F)cs2)C1` (stereo partly drawn) [Example 131, 1-(1H-indazol-4-yl)-3-{(1R)-3-[4-(trifluoromethyl)-1,3-thiazol-2-yl]cyclopentyl}urea], 1%; in that of `Cc1cnc([C@H]2CC[C@@H](NC(=O)Nc3cccc4[nH]ncc34)C2)o1` (stereo in doubt) [Example 128, 1-(1H-indazol-4-yl)-3-[(1R*,3S*)-3-(5-methyl-1,3-oxazol-2-yl)cyclopentyl]urea], 54%.
In the case of `O=C(Nc1cccc2[nH]ncc12)N[C@H]1CC[C@@H](c2ccccn2)C1` (relative stereo) [Example 38, 1-(1H-indazol-4-yl)-3-[cis-3-(pyridin-2-yl)cyclopentyl]urea], the remaining activity at 37.5 µM was 53%.
Regarding `O=C(Nc1cccc2[nH]ncc12)N[C@H]1CC[C@H](c2ccccn2)C1` (relative stereo) [Example 39, 1-(1H-indazol-4-yl)-3-[trans-3-(pyridin-2-yl)cyclopentyl]urea], the remaining activity at 37.5 µM worked out at 33%.
In the case of `Cc1cc2c(NC(=O)N[C@H]3CC[C@@H](c4ncc(C)o4)C3)c(F)ccc2cn1` (stereo in doubt) [Example 125, 1-(6-fluoro-3-methylisoquinolin-5-yl)-3-[(1S*,3R*)-3-(5-methyl-1,3-oxazol-2-yl)cyclopentyl]urea] it was 41%.
In the case of `Cc1cnc([C@@H]2CC[C@H](NC(=O)Nc3cccc4[nH]ncc34)C2)o1` (stereo in doubt) [Example 126, 1-(1H-indazol-4-yl)-3-[(1S*,3R*)-3-(5-methyl-1,3-oxazol-2-yl)cyclopentyl]urea], the remaining activity at 37.5 µM is 23%.
On to `Cc1cc2c(NC(=O)N[C@@H]3CC[C@H](c4ncc(C)o4)C3)c(F)ccc2cn1` (stereo in doubt) [Example 127, 1-(6-fluoro-3-methylisoquinolin-5-yl)-3-[(1R*,3S*)-3-(5-methyl-1,3-oxazol-2-yl)cyclopentyl]urea], for which the remaining activity at 37.5 µM was determined as 54%.
For the compound `Cc1csc([C@H]2CC[C@@H](NC(=O)Nc3cccc4[nH]ncc34)C2)n1` (single isomer, unassigned) [Example 121, 1-(1H-indazol-4-yl)-3-[(1R*,3S*)-3-(4-methyl-1,3-thiazol-2-yl)cyclopentyl]urea], the remaining activity at 37.5 µM amounted to 10%.
Turning to `Cc1csc([C@H]2CC[C@H](NC(=O)Nc3cccc4[nH]ncc34)C2)n1` (relative stereo) [Example 119, 1-(1H-indazol-4-yl)-3-[(trans)-3-(4-methyl-1,3-thiazol-2-yl)cyclopentyl]urea], the remaining activity at 37.5 µM came out at 18%.
In the case of `Cc1csc([C@@H]2CC[C@H](NC(=O)Nc3cccc4[nH]ncc34)C2)n1` (single isomer, unassigned) [Example 120, 1-(1H-indazol-4-yl)-3-[(1S*,3R*)-3-(4-methyl-1,3-thiazol-2-yl)cyclopentyl]urea], the remaining activity at 37.5 µM is 54%.
